Assay results: patent US11696903B2, “Compounds and methods for scavenging dicarbonyl electrophiles” (VANDERBILT UNIVERSITY, priority 2019, dated 2023)

Legend:
[1] = Reaction rate of scavengers with dicarbonyl electrophiles / LG relative to lysine; conditions: faster than lysine
Text: Under conditions such as inflammation and/or accumulated mutations, epithelial cells and adjacent immune cells express genes encoding enzymes involved in carcinogenesis, such as prostaglandin-endoperoxide synthase (PGHS2; COX2), NADPH oxidases, and spermine oxidase. The products of these enzymes (prostaglandins, O2D, and H2O2 plus 3-aminopropanal) lead to formation of dicarbonyl electrophiles: levuglandins (LGs), malondialdehyde (MDA), 4-oxo-nonenal (4-O NE), and acrolein. Electrophiles may lead to immune dysfunction and neoplastic risk by forming adducts with proteins and DNA11-15. However, the role of these reactive aldehydes in colon carcinogenesis is previously unknown. The present inventors have discovered that the level of LG-protein adducts is increased in the colon tissues of i) human ulcerative colitis (UC), colitis-associated carcinogenesis (CAC), and CRC; ii) mice treated with azoxymethane-dextran sulfate sodium (AOM-DSS), a model of CAC; and iii) transgenic mice with a tamoxifen-inducible disruption of Apc using the colon-specific, caudal type homeobox 2 (CDX2) Cre (CDX2P-CreERT2;Apcff), which recapitulates sporadic/genetically-driven CRC. […]

[2] = system: DNA-histone interaction (histone H4) in A549 cells; assay: Salt fractionation of A549 nuclei, histone H4 solubility; format: cell-based, human; conditions: A549, 500 μM EtSA 45 min prior to 20 μM AA
Method: FIG. 14. LG-lysyl adduct formation on histone H4 decreases DNA-histone interaction. A549 cells were stimulated and given DMSO vehicle (C lanes) or 20 μM AA for 1 h (A lanes). A subgroup of cells was treated with 500 μM EtSA 45 min prior to adding AA (E lanes). Nuclei were extracted with 0.6, 0.9, or 1.2 M NaCl buffer, and the supernatant evaluated by Western blotting for histone H4. Shown is a representative Western blot (A) as well as the pooled results of 4 experiments (B). Different exposure times may have been used for the 0.9 M and 1.2 M bands. ***, p<0.001 by one-way ANOVA followed by Tukey's multiple comparisons post-test. NS, not significant.
60-80% confluent A549 cells were stimulated and treated with AA±500 μM EtSA before scraping cells in lysis media for nuclear isolation as above. After addition of Tritox X-100 and vortexing, 1.5 mL of each sample was aliquoted into an eppendorf and centrifuged to separate nuclei. Pellets were washed with PBS and all buffer removed. Nuclear pellets were resuspended in extraction buffer containing 0.6M, 0.9M, 1.2M or 1.5M NaCl (with 10 mM Tris, pH 7.5, 3 mM MgCl2, 0.5% NP-40, and protease inhibitor cocktail) and incubated 10 min on ice. […] This was sonicated, denatured at 95° C., and analyzed by SDS-PAGE and Western blotting, using Ponceau stain to visualize proteins and confirm equal loading, and anti-H4 antibody (Abeam, Cambridge, Mass.). […]

[3] = system: Lysyl-LG adducts in AGS cells; assay: Lysyl-LG adducts in AGS cells infected with H. pylori PMSS1; format: cell-based, human
Method: FIGS. 15A, 15B, and 15C are graphs showing C57BL/6 (A) or INS-GAS mice (B) were infected for 8 weeks with H. pylori PMSS1. Lysyl-LG adducts were measured in the gastric tissues by LC/ESI/MS/MS. *P<0.05. (C) Lysyl-LG adducts concentration was determined in AGS cells infected (plain bars) or not (open bars) with H. pylori PMSS1 for 24 h, in the presence or absence of EtSA. *P<0.05 vs. uninfected cells. § P<0.05 vs. infected cells without EtSA.
[…] FVB/N insulin-gastrin (INS-GAS) mice and Mongolian gerbils were infected for 8 wk with Hp PMSS1 and 7.13, respectively; EtSA (0.75% in water) was given to animals beginning one wk post-infection. Lys-LG adducts, a marker of electrophile reactions, and EtSA were quantified by LC/EST/MS/MS. Histology was analyzed on H&E staining. DNA damage was evaluated by pH2AX staining. Hp colonization was quantified by culture. Mucosal immune responses were determined by RNA profiling and by Luminex assay. Mice were imaged using PET/CT with ^18F-FDG (inflammation marker) and ^18F—NaF (tumor marker).
To further determine whether ethylsalicylamine (EtSA) prevents the formation of bifunctional electrophiles during H. pylori infection, the […] were treated or not with EtSA 30 min prior to the infection.

[4] = system: gastric uptake of 18F-NaF (tumor marker) and 18F-FDG (inflammation marker); assay: PET/CT imaging with 18F-FDG and 18F-NaF; format: in vivo; conditions: Hp-infected mice, EtSA
Method: As discussed further in the Examples, the human gastric epithelial cell line AGS was infected with Hp PMSS1±10 mM EtSA. FVB/N insulin-gastrin (INS-GAS) mice and Mongolian gerbils were infected for 8 wk with Hp PMSS1 and 7.13, respectively; EtSA (0.75% in water) was given to animals beginning one wk post-infection. Lys-LG adducts, a marker of electrophile reactions, and EtSA were quantified by LC/EST/MS/MS. Histology was analyzed on H&E staining. DNA damage was evaluated by pH2AX staining. Hp colonization was quantified by culture. Mucosal immune responses were determined by RNA profiling and by Luminex assay. Mice were imaged using PET/CT with ^18F-FDG (inflammation marker) and ^18F—NaF (tumor marker).

CCc1ccc(O)c(CN)c1 [EtHOBA, 5-ethyl-2-hydroxybenzylamine]
rate of reaction with dicarbonyl electrophiles [1]: 3 orders of magnitude | elution of histone H4 at lower salt concentrations after AA [2]: reversed | Lys-LG adduct levels ([3]; AGS cells infected with Hp PMSS1 ± 10 mM EtSA): inhibited | lysyl-LG adduct concentration ([3]; H. pylori-infected AGS cells, 24 h, 10 μM EtSA): completely attenuated | gastric uptake of the tumor marker 18F-NaF [4]: decreased | uptake of the inflammation marker 18F-FDG [4]: not modified
